Measured values from patent US20220242861A1, “IMIDAZOPYRIDINYL COMPOUNDS AND USE THEREOF FOR TREATMENT OF PROLIFERATIVE DISORDERS” (1ST Biotherapeutics, Inc., priority 2019, published 2022).
pIC50: −log10 of the molar value.

Legend:
[1] = biological target: T1, recombinant human c-Kit (D816V) (Homo sapiens, UniProt P10721, D816V); assay: c-Kit (D816V) Kinase Assay (ADP-Glo); type: biochemical; conditions: In vitro kinase activity
T1 construct: purchased Signalchem
Procedure: (§1) ADP-Glo assay kit was purchased from Promega. Magnesium chloride (MgCl2), ethylene glycol-bis(β-aminoethyl ether)-N,N,N′,N′-tetraacetic acid (EGTA), bovine serum albumin (BSA), 1,4-dithiothreitol (DTT) and dimethyl sulfoxide (DMSO) were purchased from Sigma-Aldrich. HEPES buffer was purchased from Gibco. c-Kit (D816V) kinase and poly (4:1 Glu, Tyr) peptide were purchased from Signalchem.
(§2) c-Kit (D816V) kinase activity was measured by Promega's ADP-GIoTM Assay. In this assay, 2.5ng of recombinant human c-Kit (D816V) is incubated with 5 μL of compounds (0.5% DMSO), 5 μL of Poly (4:1 Glu, Tyr) peptide (50 ng/μl) and 5 μL of ATP (15 μM) in buffer (50 mM HEPES, pH7.5; 10 mM MgCl2; 1 mM EGTA; 0.05% BSA; 50 μM DTT). The assay was started by incubating the reaction mixture in a 96-well plate at 30° C. for 120-min. After the incubation, 25 μL ADP-Glo reagent was added and the reaction was incubated at room temperature for 40-min to stop the reaction and degrade residual ATP. The ADP product was then converted to ATP by adding 50 μL per well of detection reagent. Luminescence was detected after 30-min room temperature incubation with the Molecular device I3X plate reader. The IC50 values were calculated from a series of percent inhibition values determined at a range of inhibitor concentration using software routines as implemented in the GraphPad Prism 8 software and Sigma Plot 13.0.

recombinant human PDGFRα = biological target: T2, recombinant human PDGFRα (Homo sapiens, UniProt P16234); assay: PDGFRα Kinase Assay (ADP-Glo); type: biochemical; conditions: In vitro kinase activity, read-out: PDGFRa IC50
T2 construct: purchased Signalchem
T2 sequence (P16234 24-1089): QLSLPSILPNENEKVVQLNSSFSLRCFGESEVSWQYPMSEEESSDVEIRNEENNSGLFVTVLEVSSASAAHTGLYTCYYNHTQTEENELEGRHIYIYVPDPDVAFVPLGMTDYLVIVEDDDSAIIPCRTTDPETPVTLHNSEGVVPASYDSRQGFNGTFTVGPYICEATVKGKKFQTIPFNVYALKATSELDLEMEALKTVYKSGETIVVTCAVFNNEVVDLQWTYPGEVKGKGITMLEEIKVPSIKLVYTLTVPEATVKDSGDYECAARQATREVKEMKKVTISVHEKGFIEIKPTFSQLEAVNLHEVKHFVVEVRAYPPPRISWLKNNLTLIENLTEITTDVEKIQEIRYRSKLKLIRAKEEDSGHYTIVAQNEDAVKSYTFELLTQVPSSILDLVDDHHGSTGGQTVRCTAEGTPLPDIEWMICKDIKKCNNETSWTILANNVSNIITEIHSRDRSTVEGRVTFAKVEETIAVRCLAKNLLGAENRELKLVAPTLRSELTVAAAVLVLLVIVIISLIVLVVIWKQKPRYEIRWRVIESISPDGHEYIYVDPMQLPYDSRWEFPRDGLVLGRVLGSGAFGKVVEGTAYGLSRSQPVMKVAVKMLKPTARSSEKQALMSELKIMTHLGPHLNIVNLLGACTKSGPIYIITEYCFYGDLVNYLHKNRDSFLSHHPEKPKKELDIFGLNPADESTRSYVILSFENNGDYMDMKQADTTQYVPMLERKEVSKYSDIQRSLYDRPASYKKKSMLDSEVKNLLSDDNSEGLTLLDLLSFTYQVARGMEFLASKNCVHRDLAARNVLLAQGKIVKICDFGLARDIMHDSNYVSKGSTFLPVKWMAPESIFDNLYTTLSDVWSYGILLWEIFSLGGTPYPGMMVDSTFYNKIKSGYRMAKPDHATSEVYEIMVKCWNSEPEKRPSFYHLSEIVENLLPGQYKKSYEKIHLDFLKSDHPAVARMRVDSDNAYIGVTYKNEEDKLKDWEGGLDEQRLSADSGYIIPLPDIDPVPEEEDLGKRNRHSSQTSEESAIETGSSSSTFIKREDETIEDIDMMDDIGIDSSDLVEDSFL
Procedure: as §1, with “glycol-bis(p-aminoethyl” for “glycol-bis(β-aminoethyl”, “PDGFRα Kinase” for “c-Kit (D816V) kinase”
(§3) PDGFRα kinase activity was measured by Promega's ADP-Glo™ Assay. In this assay, 40ng of recombinant human PDGFRα is incubated with 5 μL of compounds (0.5% DMSO), 5 μL of Poly (4:1 Glu, Tyr) peptide (100 ng/μl) and 5 μL of ATP (25 pM) in buffer (50 mM HEPES, pH7.5; 10 mM MgCl2; 1 mM EGTA; 0.05% BSA; 50 μM DTT). The assay was started by incubating the reaction mixture in a 96-well plate at 30° C. for 60-min. After the incubation, 25 μL ADP-Glo reagent was added and the reaction was incubated at room temperature for 40-min to stop the reaction and degrade residual ATP. The ADP product was then converted to ATP by adding 50 μL per well of detection reagent. Luminescence was detected after 30-min room temperature incubation with the Molecular device I3X plate reader. The IC50 values were calculated from a series of percent inhibition values determined at a range of inhibitor concentration using software routines as implemented in the GraphPad Prism 8 software and Sigma Plot 13.0.

[2] = biological target: T3, recombinant human PDGFRα (D842V) (Homo sapiens, UniProt P16234, D842V); assay: PDGFRα (D842V) Kinase Assay (ADP-Glo); type: biochemical; conditions: In vitro kinase activity
T3 construct: purchased Signalchem
T3 sequence (P16234 24-1089 D842V): as the sequence (P16234 24-1089) above, with D819V counted along it
Procedure: as §1, with “glycol-bis(p-aminoethyl ether)-N, N, N′, N′-tetraacetic” for “glycol-bis(β-aminoethyl ether)-N,N,N′,N′-tetraacetic”, “PDGFRα (D842V) Kinase” for “c-Kit (D816V) kinase”
as §3, with “PDGFRα (D842V)” for “PDGFRα”, “10 ng” for “40ng”, “([…]” for “(25”, “[…]” for “50 μM”, “120-min.” for “60-min.”

recombinant human c-Kit = biological target: T4, recombinant human c-Kit (Homo sapiens, UniProt P10721); assay: c-Kit Kinase Assay (ADP-Glo); type: biochemical; conditions: In vitro kinase activity
T4 construct: purchased Signalchem
T4 sequence (P10721 26-976): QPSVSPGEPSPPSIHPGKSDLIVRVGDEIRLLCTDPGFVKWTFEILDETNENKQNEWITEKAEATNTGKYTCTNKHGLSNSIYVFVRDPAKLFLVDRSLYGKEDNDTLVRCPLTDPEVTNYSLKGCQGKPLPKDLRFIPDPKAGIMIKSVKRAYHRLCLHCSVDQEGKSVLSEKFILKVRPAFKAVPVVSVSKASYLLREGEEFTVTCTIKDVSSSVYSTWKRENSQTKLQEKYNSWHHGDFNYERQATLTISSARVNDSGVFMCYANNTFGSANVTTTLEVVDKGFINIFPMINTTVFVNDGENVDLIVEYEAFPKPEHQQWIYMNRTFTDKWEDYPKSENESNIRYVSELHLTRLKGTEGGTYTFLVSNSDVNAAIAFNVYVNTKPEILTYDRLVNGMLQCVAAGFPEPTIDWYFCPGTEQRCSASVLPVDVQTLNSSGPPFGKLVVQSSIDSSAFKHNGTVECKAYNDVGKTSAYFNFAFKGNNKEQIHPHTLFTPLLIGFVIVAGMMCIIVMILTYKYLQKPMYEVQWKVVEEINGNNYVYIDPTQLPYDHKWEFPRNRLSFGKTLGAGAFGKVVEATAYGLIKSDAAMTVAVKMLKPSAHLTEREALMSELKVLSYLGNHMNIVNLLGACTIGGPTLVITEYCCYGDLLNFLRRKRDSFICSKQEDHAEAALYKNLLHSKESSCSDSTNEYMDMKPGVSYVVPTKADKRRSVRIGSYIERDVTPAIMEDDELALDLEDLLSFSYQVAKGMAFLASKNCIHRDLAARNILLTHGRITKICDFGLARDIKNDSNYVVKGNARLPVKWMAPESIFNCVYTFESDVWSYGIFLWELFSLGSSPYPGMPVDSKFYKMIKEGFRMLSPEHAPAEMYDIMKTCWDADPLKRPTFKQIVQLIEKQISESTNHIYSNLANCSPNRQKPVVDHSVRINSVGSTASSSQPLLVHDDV
Procedure: as §1, with “glycol-bis([…]” for “glycol-bis(β-aminoethyl”, “(EGTA), manganese (II) chloride (MnCl2),” for “(EGTA),”, “c-Kit” for “c-Kit (D816V)”
as §2, with “c-Kit” for “c-Kit (D816V)”, “ADP-Glo™” for “ADP-GIoTM”, “100ng” for “2.5ng”, “(50” for “(15”, “50μM DTT; 2mM MnCl2).” for “50 μM DTT).”

[3] = system: K562 human leukemia cell line; assay: K562 Cell Proliferation Assay (MTS); type: cell-based; conditions: K562 cells, 48 hr incubation, MTS cell viability
Procedure: K562 human leukemia cell line purchased from Korean cell line bank (KCLB) and were cultured in Roswell Park Memorial Institute (RPMI) 1640 Medium supplemented with 10% fetal bovine serum (FBS) and 1% penicillin-streptomycin in a humidified incubator in an atmosphere of 5% CO2 at 37° C. Cells were seeded in 96-well plates at a density of 2×10^3 cells/well in 100 […] media. Compounds were diluted as two times concentration in 100 μl of media and added to each well. Compounds were 5-fold serially diluted for 6 points and treated from 5 μM to 1.6 nM in K562 cells. After 48 hr incubation, Compound treated cells were analyzed for anti-proliferation assay. Cell viability was investigated using the Cell Titer 96 Aqueous One Solution Reagent. Briefly, 200 μl of media were supplemented with 40 μl of MTS solution, incubated for 4hr, and then the absorbance was recorded at 490 nm with a 96-well plate reader. G150 values were calculated from a series of percent of cell viability at a range of compound concentration. GraphPad Prism 8 software or SigmaPlot 13.0 was used to generate G150 values.

T1 sequence (P10721 26-976 D816V): as the sequence (P10721 26-976) above, with D791V counted along it

Q: How did the pIC50 [1] turn out when `CC(=O)NCc1c(F)cccc1-c1ccc2nc(NC(=O)[C@@H]3C[C@@H]3F)cn2c1` [Example 75, (1 S,2 S)-N-(6-(2-(acetamidomethyl)-3-fluorophenyl)imidazo[1,2-a]pyridin-2-yl)-2-fluorocyclopropanecarboxamide] was run?
A: < 6.00

Q: And the pIC50 (recombinant human PDGFRα)?
A: < 6.00

Q: And the pIC50 [2]?
A: < 6.00

Q: And the pIC50 (recombinant human c-Kit)?
A: < 6.00

Q: How did the pIC50 [3] turn out when `CNc1ccc(C)c(-c2ccc3nc(NC(=O)[C@@H]4C[C@@H]4F)cn3c2)c1` [Example 24, (1 S,2 S)-2-fluoro-N-(6-(2-methyl-5-(methylamino)phenyl)imidazo[1,2-a]pyridin-2-yl)cyclopropane-1-carboxamide] was run?
A: 7.00 to 8.00

Q: With `O=C(Nc1cn2cc(-c3cccc(F)c3-c3ccco3)ccc2n1)[C@@H]1C[C@@H]1F` [Example 65, (1 S,2 S)-2-fluoro-N-(6-(3-fluoro-2-(furan-2-yl)phenyl)imidazo[1,2-a]pyridin-2-yl)cyclopropanecarboxamide] as the compound, how does the pIC50 [1] read?
A: < 6.00

Q: What about the pIC50 (recombinant human PDGFRα) of the same compound?
A: < 6.00

Q: What about the pIC50 [2] of the same compound?
A: < 6.00

Q: And the pIC50 (recombinant human c-Kit)?
A: < 6.00

Q: How did the pIC50 [3] turn out when `Cc1cc2nc[nH]c2cc1-c1ccc2nc(NC(=O)[C@@H]3C[C@@H]3F)cn2c1` [Example 94, (1 S,2 S)-2-fluoro-N-(6-(5-methyl-1H-benzo[d]imidazol-6-yl)imidazo[1,2-a]pyridin-2-yl)cyclopropanecarboxamide] was run?
A: 6.00 to 7.00

Q: `CC(C)NCc1c(F)cccc1-c1ccc2nc(NC(=O)[C@@H]3C[C@@H]3F)cn2c1` [Example 81, (1 S,2 S)-2-fluoro-N-(6-(3-fluoro-2-((isopropylamino)methyl)phenyl)imidazo[1,2-a]pyridin-2-yl)cyclopropanecarboxamide] was tested. Which pIC50 [1] did it give?
A: < 6.00

Q: And the pIC50 (recombinant human PDGFRα)?
A: < 6.00

Q: What about the pIC50 [2] of the same compound?
A: < 6.00

Q: And the pIC50 (recombinant human c-Kit)?
A: < 6.00

Q: How did the pIC50 [3] turn out when `Cc1ccc(-c2cc[nH]c2)cc1-c1ccc2nc(NC(=O)[C@@H]3C[C@@H]3F)cn2c1` [Example 40, (1 S,2 S)-2-fluoro-N-(6-(2-methyl-5-(1H-pyrrol-3-yl)phenyl)imidazo[1,2-a]pyridin-2-yl)cyclopropane-1-carboxamide] was run?
A: 7.00 to 8.00

Q: `CN(C)Cc1c(F)cccc1-c1ccc2nc(NC(=O)[C@@H]3C[C@@H]3F)cn2c1` [Example 84, (1 S,2 S)-N-(6-(2-((dimethylamino)methyl)-3-fluorophenyl)imidazo[1,2-a]pyridin-2-yl)-2-fluorocyclopropanecarboxamide] was tested. Which pIC50 [1] did it give?
A: < 6.00

Q: What about the pIC50 (recombinant human c-Kit) of the same compound?
A: < 6.00

Q: `Cc1ccc(F)cc1-c1ccc2nc(NC(=O)[C@@H]3C[C@@H]3F)cn2c1` [Example 11, (1 S,2 S)-2-fluoro-N-(6-(5-fluoro-2-methylphenyl)imidazo[1,2-a]pyridin-2-yl)cyclopropane-1-carboxamide] was tested. Which pIC50 [3] did it give?
A: 6.00 to 7.00

Q: With `O=C(Nc1cn2cc(-c3cnc4[nH]ccc4c3)ccc2n1)[C@@H]1C[C@@H]1F` [Example 85, (1 S,2 S)-N-(6-(1H-pyrrolo[2,3-b]pyridin-5-yl)imidazo[1,2-a]pyridin-2-yl)-2-fluorocyclopropanecarboxamide] as the compound, how does the pIC50 [3] read?
A: 6.00 to 7.00

Q: How did the pIC50 [3] turn out when `Cc1c(F)cccc1-c1ccc2nc(NC(=O)C3CC3)cn2c1` [Example 70, N-(6-(3-fluoro-2-methylphenyl)imidazo[1,2-a]pyridin-2-yl)cyclopropanecarboxamide] was run?
A: 6.00 to 7.00

Q: `Cc1c(F)cccc1-c1ccc2nc(NC(=O)C3CC3(F)F)cn2c1` (centres unmarked) [Example 77, 2,2-difluoro-N-(6-(3-fluoro-2-methylphenyl)imidazo[1,2-a]pyridin-2-yl)cyclopropanecarboxamide] was tested. Which pIC50 [3] did it give?
A: 6.00 to 7.00

Q: `Cc1ccc2[nH]ccc2c1-c1ccc2nc(NC(=O)[C@@H]3C[C@@H]3F)cn2c1` [Example 15, (1 S,2 S)-2-fluoro-N-(6-(5-methyl-1H-indol-4-yl)imidazo[1,2-a]pyridin-2-yl)cyclopropane-1-carboxamide] was tested. Which pIC50 [3] did it give?
A: 7.00 to 8.00

Q: `Cc1cc2[nH]ccc2cc1-c1ccc2nc(NC(=O)[C@@H]3C[C@@H]3F)cn2c1` [Example 92, (1 S,2 S)-2-fluoro-N-(6-(6-methyl-1H-indol-5-yl)imidazo[1,2-a]pyridin-2-yl)cyclopropanecarboxamide] was tested. Which pIC50 [3] did it give?
A: 7.00 to 8.00

Q: `Cc1c(F)cccc1-c1ccc2nc(NC(=O)[C@@H]3C[C@@H]3F)cn2c1` [Example 1, (1 S,2 S)-2-fluoro-N-(6-(3-fluoro-2-methylphenyl)imidazo[1,2-a]pyridin-2-yl)cyclopropane-1-carboxamide] was tested. Which pIC50 [3] did it give?
A: 6.00 to 7.00

Q: `Cc1ccc(O)cc1-c1ccc2nc(NC(=O)[C@@H]3C[C@@H]3F)cn2c1` [Example 12, (1 S,2 S)-2-fluoro-N-(6-(5-hydroxy-2-methylphenyl)imidazo[1,2-a]pyridin-2-yl)cyclopropane-1-carboxamide] was tested. Which pIC50 [3] did it give?
A: 7.00 to 8.00

Q: How did the pIC50 [3] turn out when `Cc1cc2ncsc2cc1-c1ccc2nc(NC(=O)[C@@H]3C[C@@H]3F)cn2c1` [Example 103, (1 S,2 S)-2-fluoro-N-(6-(5-methylbenzo[d]thiazol-6-yl)imidazo[1,2-a]pyridin-2-yl)cyclopropanecarboxamide] was run?
A: 7.00 to 8.00
